Data on 12 molecules can be found in paper PMC9861175, “Diversity and Biosynthetic Potential of Fungi Isolated from St. John’s Island, Singapore” (International Journal of Molecular Sciences, 2023).

Data set [1] has as its system C. albicans ATCC 10231. In words: Antifungal growth inhibition (OD) screen against C. albicans. It is filed as cell-based. Particulars: Candida albicans, read-out: IC50 CA. The protocol: (§1) Dried extracts were resuspended in MeOH to obtain 20 mg/mL sample concentration followed by sonication for complete solubilizing. Ten microliters (10 µL) of the extracts per well were added to 96-well plates followed by drying via centrifugal vacuum concentrator. Upon drying, 100 µL of 10% DMSO was added to each well to obtain a sample concentration of 2 mg/mL. Ten microliters (10 µL) were subsequently used for the antimicrobial bioassays where 90 µL of the respective microbial cultures were added to each sample, leading to a final extract concentration of 200 µg/mL. For preliminary screening, extracts from all 30 fungi were evaluated for antimicrobial activities using the highest concentration of 200 µg/mL.
For the C. albicans screen, a single colony from freshly streaked C. albicans on Sabouraud dextrose agar (SDA) was inoculated into 25-mL of Sabouraud liquid medium (SLM) and incubated at 35 °C with shaking at 150 rpm for 18 hrs. Subsequently, 1% of the culture (250 µL) was prepared with SLM and incubated at 35 °C with shaking for 6 h. OD600 was monitored until it reached approximately 0.8. Cell density (D) of the culture was calculated using the following equation: D = [(30 × OD600) − 8] × 10^6 CFU/mL. Final cell densities were adjusted to 2.5 × 10^5 CFU/mL and inoculated as 90 µL suspensions into 96-well plates. Similar to the antibacterial assays, upon addition of 10 µL of extracts to the cell suspensions, the plates were incubated at 37 °C for 20 h prior to OD readings. For each extract tested, three technical replicates were used. Amphotericin B was used as the antifungal standard control in C. albicans screen.

Data set [2] relates to L5178Y mouse lymphoma cell line. On the set-up: method as in doi:10.1016/j.phytol.2014.12.010. The conditions noted are these: cited from earlier work.
Data set [3] deals with Methicillin-resistant Staphylococcus aureus ATCC 33591. In words: Antibacterial broth microdilution growth inhibition (OD600) against MRSA. It is filed as cell-based. Particulars: 20 h. On the procedure:
as §1
(§2) For the antibacterial bioassays, the test microorganisms S. aureus, Methicillin-resistant S. aureus (MRSA) and E. coli were plated on Mueller-Hinton II agar (Merck, Germany) and incubated overnight at 37 °C. Colonies were added to a glass tube containing 0.85% saline solution until the turbidity was equivalent to 0.5 McFarland Standard (approximate cell density 1.5 × 10^8 CFU/mL). Cell suspensions were then diluted in MH2 liquid media to obtain a final cell density of 5 × 10^5 CFU/mL. Ninety microliters (90 µL) of cell suspensions were added to 10 µL of extracts in the 96-well bioassay plates and incubated at 37 °C for 20 h. For each extract tested, three replicates were used. The optical density (OD) of each well was measured using a Hidex Sense microplate reader (Hidex, Finland) at 600 nm. Percentage growth inhibition was calculated according to the following formula with the quality of the bioassay assessed based on the Z-prime analysis. A Z-prime of ≥0.7 indicates the robustness of the high throughput screening data. Gentamicin was used as the standard control against S. aureus and E. coli while vancomycin was used as the standard control in the MRSA assay.

Data set [4] relates to A549 human lung carcinoma cells ATCC CCL-185. In words: Cytotoxicity assay (PrestoBlue, 72 h) on A549 cells. The format is cell-based. The conditions noted are these: for IC50: Homo sapiens, read-out: IC50 A549. On the procedure: The cytotoxic effect of the isolated compounds on the A549 human lung carcinoma cell line was determined as described previously. A549 cells at a concentration of 3.3 × 10^4 cells/mL in Dulbecco’s Modified Eagle Medium (DMEM, Gibco, Life Technologies, Bleiswijk, The Netherlands) were treated with isolated compounds at concentrations ranging from 0.1 μM to 200 μM and incubated for 72 h at 37 °C in 5% CO2 and 95% relative humidity. Cytotoxic effect of the compounds was measured after the addition of PrestoBlue™ cell viability reagent (Thermo Fisher Scientific, USA) and incubation for 2 h by reading of the plates’ fluorescence at an excitation wavelength of 560 nm and emission wavelength of 590 nm using the Tecan Infinite M1000 Pro reader. Puromycin served as the standard control.

Data set [5] deals with Escherichia coli ATCC 25922. In words: Antibacterial broth microdilution growth inhibition (OD600) against E. coli. It is filed as cell-based. The conditions noted are these: read-out: IC50 EC. On the procedure:
as §1, §2
On the technique in general: Broth dilution looks for growth in wells or tubes with falling amounts of substance.

The test system of data set [6] is Staphylococcus aureus ATCC 25923. In words: Antibacterial broth microdilution growth inhibition (OD600) against S. aureus. It is filed as cell-based. The conditions noted are these: for IC50: read-out: IC50 SA. On the procedure:
as §1, §2

The conditions of data set [7]: mycotoxins associated with food spoilage; cited from earlier work.
Data set [8] concerns human hepatoma cell line. Particulars: cited from earlier work.
[9] abbreviates: ATCC10231, isolated compounds, C. albicans ATCC 10231, 20 h.
Where [10] appears, read: Staphylococcus aureus, read-out: IC50 MRSA, isolated compounds, MRSA ATCC 33591, 37 °C.
Setting [11] is: ATCC25922, isolated compounds, E. coli ATCC 25922, 20 h, 37 °C.
Where [12] appears, read: Staphylococcus aureus, ATCC25923, 20 h, isolated compounds, S. aureus ATCC 25923, 20 h, 37 °C.
The mark [13] stands for this setting: Staphylococcus aureus, ATCC25923, isolated compounds, S. aureus ATCC 25923, 20 h, 37 °C.
Setting [14] is: Staphylococcus aureus, read-out: IC50 MRSA.
Where [15] appears, read: Staphylococcus aureus, isolated compounds, MRSA ATCC 33591, 37 °C, read-out: IC50 MRSA.
Setting [16] is: isolated compounds, A549 cells, 72 h.

Like-named read-outs stand apart in the source and are kept apart here. A value given as a limit tells only on which side of the number the result lay.

A word on the IC50: it is the point on the concentration scale where inhibition reaches its midpoint. `C[C@@H]1[C@H](O)[C@@H](C)/C=C/C=C/C=C/C=C/C=C/C=C/C=C/[C@H](O[C@@H]2O[C@H](C)[C@@H](O)[C@H](N)[C@@H]2O)C[C@@H]2O[C@](O)(C[C@@H](O)C[C@@H](O)[C@H](O)CC[C@@H](O)C[C@@H](O)CC(=O)O[C@H]1C)C[C@H](O)[C@H]2C(=O)O` [Amphotericin B, reference compound]: the IC50 in data set [1] (setting [9]) was 0.14 µM.
As to `COc1ccc(C2SSC34CC5(O)C(O)C=CC(O)C5ON3C(=O)C2N(C)C4=O)c(O)c1OC` (stereo not shown) [Pretrichodermamide C], the “activity against the L5178Y mouse lymphoma cell line” value in data set [2] is “inactive”. In addition, the IC50 in data set [3] (setting [10]) is under 50 µM; in data set [3] (read-out: IC50 MRSA, isolated compounds, MRSA ATCC 33591, 37 °C), 41.6 µM; in data set [4] (A549, 72 h), over 200 µM; in data set [5] (setting [11]) it was over 200 µM; in data set [6] (setting [12]), under 50 µM; in data set [6] (isolated compounds, S. aureus ATCC 25923, 20 h, 37 °C), 34.7 µM. The IC50 in data set [1] (setting [9]) was over 200 µM. Further, in data set [4] (isolated compounds), the “cytotoxic activity against A549 cells (in words)” value was “no cytotoxic activity”.
Turning to `CNC(C)C1CCC(N)C(OC2C(N)CC(N)C(OC3OCC(C)(O)C(NC)C3O)C2O)O1` (stereo not shown) [Gentamicin, reference compound], the figures for the IC50 in data set [5] (setting [11]) and in data set [6] (setting [13]) were 0.67 µM and 0.22 µM, respectively.
With `CN[C@H](CC(C)C)C(=O)N[C@H]1C(=O)N[C@@H](CC(N)=O)C(=O)N[C@H]2C(=O)N[C@H]3C(=O)N[C@H](C(=O)N[C@H](C(=O)O)c4cc(O)cc(O)c4-c4cc3ccc4O)[C@H](O)c3ccc(c(Cl)c3)Oc3cc2cc(c3O[C@@H]2O[C@H](CO)[C@@H](O)[C@H](O)[C@H]2O[C@H]2C[C@](C)(N)[C@H](O)[C@H](C)O2)Oc2ccc(cc2Cl)[C@H]1O` [Vancomycin, reference compound], the IC50 in data set [3] (setting [14]) was 1.5 µM.
`COC1=C(c2c(OC)cc3cc4c(c(O)c3c2O)C(=O)OC(C)C4)C(=O)c2c(cc3c(c2O)C(=O)OC(C)C3)C1=O` (stereo not shown) [Viomellein]: the “liver and kidney damage in animals” value in data set [7] was “known to cause liver and kidney damage in animals”. In addition, the IC50 was 2.9 µM in data set [3] (setting [10]); 42 µM in data set [4] (A549, 72 h); over 100 µM in data set [5] (setting [11]); 3.2 µM in data set [6] (setting [12]); 17.9 µM in data set [1] (setting [9]).
`COC1=C(C2=C(OC)C(=O)c3cc4c(c(O)c3C2=O)C(=O)OC(C)C4)C(=O)c2c(cc3c(c2O)C(=O)OC(C)C3)C1=O` (stereo not shown) [Xanthomegnin]: the “liver and kidney damage in animals” value in data set [7] is “known to cause liver and kidney damage in animals”. Besides, the IC50 in data set [3] (setting [10]) is 35.3 µM; in data set [4] (A549, 72 h), 65.6 µM; in data set [5] (setting [11]) it was over 200 µM; in data set [6] (setting [12]), 19.2 µM; in data set [1] (setting [9]) it was 18.6 µM.
With Penilumamide E, in data set [8], the “cytotoxicity activity against a human hepatoma cell line” value (from here on “cytotoxicity activity”) is reported as “weak cytotoxicity activity”.
`COC(=O)c1ccccc1NC(=O)C(CCSC)NC(=O)c1cnc2c(n1)c(=O)n(C)c(=O)n2C` (stereo not shown) [Penilumamide B]: the IC50 is over 200 µM in data set [3] (setting [15]); 113 µM in data set [4] (setting [16]); over 200 µM in data set [5] (setting [11]); over 200 µM in data set [6] (setting [13]); over 200 µM in data set [1] (setting [9]).
In the case of `COc1ccc(C[C@H](N)C(=O)N[C@H]2[C@@H](O)[C@H](n3cnc4c(N(C)C)ncnc43)O[C@@H]2CO)cc1` [Puromycin, reference compound], the IC50 in data set [4] (setting [16]) amounted to 0.25 µM.
As for `COC(=O)c1ccccc1NC(=O)C(CC[S+](C)[O-])NC(=O)c1cnc2c(=O)n(C)c(=O)n(C)c2n1` (stereo not shown) [Penilumamide A], the IC50 in data set [3] (setting [15]) is over 200 µM; in data set [4] (setting [16]) it was 100 µM; in data set [5] (setting [11]), over 200 µM; in data set [6] (setting [13]), 88 µM; in data set [1] (setting [9]) it was over 200 µM. Besides, the “cytotoxic activity against A549 cells (in words)” value in data set [4] (isolated compounds) is “weak”. In addition, in data set [6] (isolated compounds), the “antimicrobial activity against S. aureus (in words)” value is reported as “weak”. Also, the “cytotoxicity activity” value in data set [8] is on record as “weak cytotoxicity activity”.
Turning to `CC(NC(=O)c1cnc2c(n1)c(=O)n(C)c(=O)n2C)C(=O)Nc1ccccc1C(N)=O` (stereo not shown) [Penilumamide D], the IC50 in data set [3] (setting [15]), in data set [4] (setting [16]), in data set [5] (setting [11]), in data set [6] (setting [13]) and in data set [1] (setting [9]) was over 200 µM in each case. In addition, in data set [8], the “cytotoxicity activity” value is recorded as “weak cytotoxicity activity”.
Regarding `COc1cc2cc3c(c(O)c2c(O)c1-c1c(OC)cc2cc4c(c(O)c2c1O)C(=O)O[C@H](C)C4)C(=O)O[C@H](C)C3` [Vioxanthin], in data set [7], the “liver and kidney damage in animals” value was “known to cause liver and kidney damage in animals”. Also, the IC50 in data set [3] (setting [14]) was 1.6 µM; in data set [4] (A549, 72 h), 77.1 µM; in data set [5] (ATCC25922, 20 h) it was over 200 µM; in data set [6] (Staphylococcus aureus, ATCC25923, 20 h) it was 3 µM; in data set [1] (ATCC10231, 20 h) it was 36.4 µM.
